As a reminder, the EC50 is the concentration giving half of the maximal effect. In general, amount remaining refers to the share of the starting amount still present when the sample was taken.

The test system of series [1] is wildtype (WT) mice. The series can be described thus: Glucose change in wildtype mice. The series is classed as in vivo, mouse. The settings on record: s.c. The procedure: […] and wildtype (WT) mice at 8-14 weeks of age were singly housed on standard chow diet (Envigo, 2918) and automatic water. They acclimated for a minimum of ˜1-2 weeks, and mice were sorted into groups (n=4-8/group) based on body weight. On day of study, mice were fasted briefly for 2 hrs prior to study start. In some studies, mice were pre-treated with octreotide (BaChem, 10 mg/kg) at 30 minutes prior to peptide injection. Glucose was measured via glucometer at various timepoints including −30 min (prior to octreotide when used in studies), 0 min (before peptide dose), 30, 60, 120, 180, 240, and 360 minutes. Since these studies are acute in nature, mice were re-used for multiple studies (no more than 3) and always allowed at least a minimum wash-out period of 1 week.

Series [2] concerns the target T1, neprilysin (Homo sapiens, UniProt P08473).
T1 construct: purchased R&D Systems 1182-ZNC-010
The series can be described thus: Proteolytic resistance to neprilysin. It counts as in vitro ADME. The settings on record: pH 8.3. Here is the method:
10.0 μg (˜10 units) recombinant Neprilysin (R&D Systems: 1182-ZNC-010) was reconstituted to 100 μL (100 μg/mL, ˜100 units/mL) in assay buffer (50 mM Tris, 50 mM NaCl, 50 mM NaHCO3, adjusted to pH 8.3) to give the enzyme stock solution. Peptide stock solutions were prepared to a concentration of ˜250 μM (˜1.0 mg/mL of 4 kDa peptide) in assay buffer. 100 μL (10 μg, ˜10 units) of neprilysin stock solution was added to 100 μL of peptide stock solution (1.0 mg/mL, ˜100 μg of peptide) and the mixture was co-incubated in a temperature regulated incubator at 37° C. for the duration of the experiment. 25 μL aliquots (˜12.5 μg initial peptide) of the peptide-enzyme mixture were periodically withdrawn (t=0, 30 mins, 1 h, 2 h, 4 h and 24 h) and quenched immediately by addition to an equal volume ([…]) of 10% TFA (v/v) in 1:1 water/acetonitrile to arrest proteolytic activity. The quenched aliquot centrifuged at 7800 rpm, and 30 μL of the supernatant was analyzed by analytical RP-HPLC as follows: Analytical RP-HPLC method: Agilent Polaris C8-A column (4.6×100 mm, 3 micron) eluted with a linear binary gradient of 10-90% MeCN (0.1% TFA v/v) in water (0.1% TFA v/v) over either 10 or 15 mins at 1.5 mL min^−1 at 40° C. with detection by UV absorption at 210 nm. Manual integration (AUC) allowed estimation of remaining intact peptide over the time course of the experiment.

Series [3] deals with T2, human glucagon receptor (hGCGR) (Homo sapiens, UniProt P47871).
T2 construct: expressed in transfected cells; host or cells: CHO
T2 sequence (P47871 26-477): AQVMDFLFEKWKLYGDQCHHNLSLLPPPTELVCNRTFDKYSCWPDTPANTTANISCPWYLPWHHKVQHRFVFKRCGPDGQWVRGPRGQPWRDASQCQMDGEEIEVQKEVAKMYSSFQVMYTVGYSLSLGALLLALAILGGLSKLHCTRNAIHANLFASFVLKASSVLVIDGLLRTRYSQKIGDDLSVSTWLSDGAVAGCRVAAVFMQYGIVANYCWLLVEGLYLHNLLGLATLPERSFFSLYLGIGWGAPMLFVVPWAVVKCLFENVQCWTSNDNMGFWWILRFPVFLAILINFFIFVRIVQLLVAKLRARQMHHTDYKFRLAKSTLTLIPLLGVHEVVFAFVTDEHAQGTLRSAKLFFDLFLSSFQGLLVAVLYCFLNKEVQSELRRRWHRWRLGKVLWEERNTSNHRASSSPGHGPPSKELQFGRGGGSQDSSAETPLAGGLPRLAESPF
The series can be described thus: cAMP production (HTRF) in CHO cells expressing human glucagon receptor. It counts as cell-based. The settings on record: Table 7, modification at position 20, CHO cells expressing hGCGR, geometric mean, read-out: hGluc-R EC50. For orientation: cAMP levels reflect the balance of adenylyl cyclase and phosphodiesterase activity.

Series [4] addresses T3, human GLP-1 receptor (hGLP-1R) (Homo sapiens, UniProt P43220).
T3 construct: expressed in transfected cells; host or cells: CHO
The series can be described thus: cAMP production (HTRF) in CHO cells expressing human GLP-1 receptor. It counts as cell-based.

Setting [5] is: 10 nmol/kg, somatostatin pretreatment 30 min prior to cpd.

Starred links: 1 amine or outer side, 2 acyl side, 3 side chain; linkers in the order of their positions; H or OH if unused. Non-standard residues stand in square brackets, D forms with d. Residues, ends and D or L forms follow the SMILES beside them. Groups on a side chain read outwards from the residue. *: point of attachment. C20 diacid = O=C(O)CCCCCCCCCCCCCCCCCCC(=O)*; C18 diacid = O=C(O)CCCCCCCCCCCCCCCCC(=O)*; Dip = N[C@H](C(=O)O)C(c1ccccc1)c1ccccc1; γGlu = O=C(O)[C@H](CCC(=O)[*:2])N[*:1]; Stearoyl = CCCCCCCCCCCCCCCCCC(=O)*; Palmitoyl = CCCCCCCCCCCCCCCC(=O)*; αMeF = C[C@](N)(Cc1ccccc1)C(=O)O; PEG4 = NCCOCCOCCOCCOCCC(=O)O; PEG2 = NCCOCCOCCC(=O)O; AEEA = NCCOCCOCC(=O)O; Aib = CC(C)(N)C(=O)O

T1 sequence (P08473 whole entry): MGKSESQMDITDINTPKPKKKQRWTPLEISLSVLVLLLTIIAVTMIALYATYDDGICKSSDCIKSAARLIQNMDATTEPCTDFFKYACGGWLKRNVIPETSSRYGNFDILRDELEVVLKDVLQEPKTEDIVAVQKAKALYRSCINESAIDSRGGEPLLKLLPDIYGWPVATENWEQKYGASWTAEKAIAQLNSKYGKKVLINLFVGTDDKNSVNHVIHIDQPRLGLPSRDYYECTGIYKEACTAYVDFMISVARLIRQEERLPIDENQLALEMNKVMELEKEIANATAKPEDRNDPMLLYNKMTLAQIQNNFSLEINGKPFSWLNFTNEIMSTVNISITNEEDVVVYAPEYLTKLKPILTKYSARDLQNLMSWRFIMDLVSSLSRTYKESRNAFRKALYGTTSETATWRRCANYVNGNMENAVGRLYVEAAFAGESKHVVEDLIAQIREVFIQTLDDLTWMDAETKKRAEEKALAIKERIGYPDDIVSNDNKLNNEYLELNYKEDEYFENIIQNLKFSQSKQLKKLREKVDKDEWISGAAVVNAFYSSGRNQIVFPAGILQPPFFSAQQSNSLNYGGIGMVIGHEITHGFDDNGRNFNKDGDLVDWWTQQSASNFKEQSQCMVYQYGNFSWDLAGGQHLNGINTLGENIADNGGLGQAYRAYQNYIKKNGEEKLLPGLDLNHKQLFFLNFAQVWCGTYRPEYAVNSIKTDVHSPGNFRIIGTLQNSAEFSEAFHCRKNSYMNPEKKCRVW
T3 sequence (P43220 24-463): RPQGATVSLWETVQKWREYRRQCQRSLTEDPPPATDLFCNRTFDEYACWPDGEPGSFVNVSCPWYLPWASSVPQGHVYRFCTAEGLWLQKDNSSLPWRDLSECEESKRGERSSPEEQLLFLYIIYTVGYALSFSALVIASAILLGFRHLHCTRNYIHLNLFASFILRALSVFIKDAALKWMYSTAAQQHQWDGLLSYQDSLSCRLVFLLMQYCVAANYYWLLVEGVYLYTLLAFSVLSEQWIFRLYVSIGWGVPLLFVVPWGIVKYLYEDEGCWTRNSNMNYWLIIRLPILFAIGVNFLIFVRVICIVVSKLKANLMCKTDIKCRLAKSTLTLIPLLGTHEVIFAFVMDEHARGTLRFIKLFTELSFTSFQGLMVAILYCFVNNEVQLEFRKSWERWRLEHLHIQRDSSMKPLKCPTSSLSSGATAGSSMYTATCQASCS

Regarding `CCCCCCCCCCCCCCCC(=O)N[C@@H](CCC(=O)N[C@@H](CCC(=O)NCCOCCOCCOCCOCCC(=O)NCCCC[C@H](NC(=O)[C@H](CO)NC(=O)[C@H](CC(=O)O)NC(=O)[C@H](CC(C)C)NC(=O)[C@@H](NC(=O)[C@H](CCCCN)NC(=O)[C@H](CO)NC(=O)[C@@H](NC(=O)[C@H](CC(=O)O)NC(=O)[C@H](CO)NC(=O)[C@@H](NC(=O)[C@](C)(Cc1ccccc1)NC(=O)[C@H](CO)NC(=O)CNC(=O)[C@H](CCC(N)=O)NC(=O)C(C)(C)NC(=O)[C@@H](N)Cc1c[nH]cn1)[C@@H](C)O)C(C)C)C(c1ccccc1)c1ccccc1)C(=O)N[C@@H](CCCNC(=N)N)C(=O)N[C@@H](C)C(=O)N[C@@H](CCC(N)=O)C(=O)N[C@@H](CC(=O)O)C(=O)N[C@@](C)(Cc1ccccc1)C(=O)N[C@H](C(=O)N[C@@H](CCC(=O)O)C(=O)NC(C)(C)C(=O)N[C@@H](CC(C)C)C(=O)N[C@@H](CCC(=O)O)C(=O)N[C@@H](C)C(=O)NCC(=O)NCC(N)=O)C(C)C)C(=O)O)C(=O)O` [Peptide 43] (H-H[Aib]QGS[αMeF]TSDVSK[Dip]LDSK([PEG4-γGlu-γGlu-Palmitoyl])RAQD[αMeF]VE[Aib]LEAGG-NH2; N-terminus assumed), in series [1] (3 nmol/kg, no somatostatin pretreatment), the “WT % glucose change 120 min” value is reported as −56.0%.

With `CC[C@H](C)[C@H](NC(=O)C(C)(C)NC(=O)[C@H](CCC(N)=O)NC(=O)[C@@H](NC(=O)[C@](C)(Cc1ccccc1)NC(=O)[C@H](CC(=O)O)NC(=O)[C@H](CCCCNC(=O)COCCOCCNC(=O)COCCOCCNC(=O)CC[C@H](NC(=O)CCCCCCCCCCCCCCCCC(=O)O)C(=O)O)NC(=O)[C@H](C)NC(=O)[C@H](C)NC(=O)[C@H](CCCNC(=N)N)NC(=O)[C@H](CO)NC(=O)[C@H](CC(=O)O)NC(=O)[C@H](CC(C)C)NC(=O)[C@](C)(Cc1ccccc1)NC(=O)[C@H](CCCCN)NC(=O)[C@H](CO)NC(=O)[C@@H](NC(=O)[C@H](CC(=O)O)NC(=O)[C@H](CO)NC(=O)[C@@H](NC(=O)[C@](C)(Cc1ccccc1)NC(=O)[C@H](CO)NC(=O)CNC(=O)[C@H](Cc1c[nH]cn1)NC(=O)C(C)(C)NC(=O)[C@@H](N)Cc1c[nH]cn1)[C@@H](C)O)C(C)C)C(C)C)C(=O)N[C@@H](C)C(=O)N[C@@H](CC(N)=O)C(=O)N[C@H](C(N)=O)[C@@H](C)O` [Peptide 224, H-Aib-H-G-S-αMePhe-T-S-D-V-S-K-αMePhe-L-D-S-R-A-A-K(ε-(O2Oc)-(O2Oc)-γE-C18diacid)20-D-αMePhe-V-Q-Aib-I-A-N-T-amide] (H-H[Aib]HGS[αMeF]TSDVSK[αMeF]LDSRAAK([AEEA-AEEA-γGlu-C18 diacid])D[αMeF]VQ[Aib]IANT-NH2), the “WT % glucose change 120 min” value in series [1] (setting [5]) is −40.0%.

Consider `CC[C@H](C)[C@H](NC(=O)C(C)(C)NC(=O)[C@H](CCC(=O)O)NC(=O)[C@@H](NC(=O)[C@](C)(Cc1ccccc1)NC(=O)[C@H](CC(=O)O)NC(=O)[C@H](CCCNC(=N)N)NC(=O)[C@H](C)NC(=O)[C@H](C)NC(=O)[C@H](CCCCNC(=O)COCCOCCNC(=O)COCCOCCNC(=O)CC[C@H](NC(=O)CCCCCCCCCCCCCCCCC(=O)O)C(=O)O)NC(=O)[C@H](CO)NC(=O)[C@H](CC(=O)O)NC(=O)[C@H](CC(C)C)NC(=O)[C@](C)(Cc1ccccc1)NC(=O)[C@H](CCCCN)NC(=O)[C@H](CO)NC(=O)[C@@H](NC(=O)[C@H](CC(=O)O)NC(=O)[C@H](CO)NC(=O)[C@@H](NC(=O)[C@](C)(Cc1ccccc1)NC(=O)[C@H](CO)NC(=O)CNC(=O)[C@H](Cc1c[nH]cn1)NC(=O)C(C)(C)NC(=O)[C@@H](N)Cc1c[nH]cn1)[C@@H](C)O)C(C)C)C(C)C)C(=O)N[C@@H](C)C(=O)N[C@@H](CC(N)=O)C(=O)N[C@H](C(N)=O)[C@@H](C)O` [Peptide 15] (H-H[Aib]HGS[αMeF]TSDVSK[αMeF]LDSK([AEEA-AEEA-γGlu-C18 diacid])AARD[αMeF]VE[Aib]IANT-NH2; N-terminus assumed), for which, in series [2], the “% intact peptide over time, Neprilysin” value was found to be 100%.

In the case of `CCCCCCCCCCCCCCCCCC(=O)N[C@@H](CCC(=O)N[C@@H](CCC(=O)NCCOCCOCCC(=O)NCCOCCOCCC(=O)NCCCC[C@H](NC(=O)[C@H](CO)NC(=O)[C@H](CC(=O)O)NC(=O)[C@H](CC(C)C)NC(=O)[C@@H](NC(=O)[C@H](CCCCN)NC(=O)[C@H](CO)NC(=O)[C@@H](NC(=O)[C@H](CC(=O)O)NC(=O)[C@H](CO)NC(=O)[C@@H](NC(=O)[C@](C)(Cc1ccccc1)NC(=O)[C@H](CO)NC(=O)CNC(=O)[C@H](CCC(N)=O)NC(=O)[C@H](CO)NC(=O)[C@@H](N)Cc1c[nH]cn1)[C@@H](C)O)C(C)C)C(c1ccccc1)c1ccccc1)C(=O)N[C@@H](C)C(=O)N[C@@H](C)C(=O)N[C@@H](CCC(N)=O)C(=O)N[C@@H](CC(=O)O)C(=O)N[C@@](C)(Cc1ccccc1)C(=O)N[C@H](C(=O)N[C@@H](CCC(=O)O)C(=O)NC(C)(C)C(=O)N[C@H](C(=O)N[C@@H](C)C(=O)N[C@@H](CC(N)=O)C(=O)N[C@H](C(N)=O)[C@@H](C)O)[C@@H](C)CC)C(C)C)C(=O)O)C(=O)O` [Peptide 49] (H-HSQGS[αMeF]TSDVSK[Dip]LDSK([PEG2-PEG2-γGlu-γGlu-Stearoyl])AAQD[αMeF]VE[Aib]IANT-NH2; N-terminus assumed), the “WT % glucose change 120 min” value in series [1] (setting [5]) was −1.2%.

Regarding `CC[C@H](C)[C@H](NC(=O)[C@H](Cc1c[nH]c2ccccc12)NC(=O)[C@H](CCC(N)=O)NC(=O)[C@@H](NC(=O)[C@H](Cc1ccccc1)NC(=O)[C@H](CC(=O)O)NC(=O)[C@H](CCCCNC(=O)COCCOCCNC(=O)COCCOCCNC(=O)CC[C@H](NC(=O)CC[C@H](NC(=O)CCCCCCCCCCCCCCCCCCC(=O)O)C(=O)O)C(=O)O)NC(=O)[C@H](C)NC(=O)[C@H](C)NC(=O)[C@H](CCCNC(=N)N)NC(=O)[C@H](CO)NC(=O)[C@H](CC(=O)O)NC(=O)[C@H](CC(C)C)NC(=O)[C@](C)(Cc1ccccc1)NC(=O)[C@H](CCCCN)NC(=O)[C@H](CO)NC(=O)[C@@H](NC(=O)[C@H](CC(=O)O)NC(=O)[C@H](CO)NC(=O)[C@@H](NC(=O)[C@H](Cc1ccccc1)NC(=O)[C@H](CO)NC(=O)CNC(=O)[C@H](Cc1c[nH]cn1)NC(=O)C(C)(C)NC(=O)[C@@H](N)Cc1c[nH]cn1)[C@@H](C)O)C(C)C)C(C)C)C(=O)N[C@@H](C)C(=O)N[C@@H](CC(N)=O)C(=O)N[C@H](C(N)=O)[C@@H](C)O` [Peptide 290] (H-H[Aib]HGSFTSDVSK[αMeF]LDSRAAK([AEEA-AEEA-γGlu-γGlu-C20 diacid])DFVQWIANT-NH2; N-terminus assumed), in series [3], the concentration giving a half-maximal response (EC50) came out at 0.26 nM. Moreover, in series [2] (isolated enzyme neprilysin), the fraction remaining at 4 h, 125 µM was 89% and the fraction remaining at 24 h, 125 µM amounted to 82%. Also, the “% intact peptide over time, Neprilysin” value in series [2] is 100%. Moreover, the concentration giving a half-maximal response (EC50) in series [4] (Table 7, modification at position 20, CHO cells expressing hGLP-1R, cAMP, geometric mean, read-out: hGLP-1R EC50) is 0.347 nM. The “% Relative Potency Ratio” value in series [4] (Table 7, % GLP-1R activity relative to GLP-1 / % GlucR activity relative to glucagon) is on record as 1.5.

For `CC[C@H](C)[C@H](NC(=O)C(C)(C)NC(=O)[C@H](CCC(N)=O)NC(=O)[C@@H](NC(=O)[C@](C)(Cc1ccccc1)NC(=O)[C@H](CC(=O)O)NC(=O)[C@H](CCCCNC(=O)COCCOCCNC(=O)COCCOCCNC(=O)CC[C@H](NC(=O)CC[C@H](NC(=O)CCCCCCCCCCCCCCCCCCC(=O)O)C(=O)O)C(=O)O)NC(=O)[C@H](C)NC(=O)[C@H](C)NC(=O)[C@H](CCCNC(=N)N)NC(=O)[C@H](CO)NC(=O)[C@H](CC(=O)O)NC(=O)[C@H](CC(C)C)NC(=O)[C@](C)(Cc1ccccc1)NC(=O)[C@H](CCCCN)NC(=O)[C@H](CO)NC(=O)[C@@H](NC(=O)[C@H](CC(=O)O)NC(=O)[C@H](CO)NC(=O)[C@@H](NC(=O)[C@H](Cc1ccccc1)NC(=O)[C@H](CO)NC(=O)CNC(=O)[C@H](Cc1c[nH]cn1)NC(=O)C(C)(C)NC(=O)[C@@H](N)Cc1c[nH]cn1)[C@@H](C)O)C(C)C)C(C)C)C(=O)N[C@@H](C)C(=O)N[C@@H](CC(N)=O)C(=O)N[C@H](C(N)=O)[C@@H](C)O` [Peptide 282] (H-H[Aib]HGSFTSDVSK[αMeF]LDSRAAK([AEEA-AEEA-γGlu-γGlu-C20 diacid])D[αMeF]VQ[Aib]IANT-NH2), the “% intact peptide over time, Neprilysin” value in series [2] amounted to 100%.

For the origin of these results see patent US12630600B2 (MEDIMMUNE LIMITED, priority 2022, dated 2026).
